One experiment deals with T1, human orexin-1 receptor (Homo sapiens, UniProt O43613).
T1 construct: expressed in transfected cells; host or cells: Chinese hamster ovary (CHO) cells, G418 selection
T1 sequence (O43613 1-425): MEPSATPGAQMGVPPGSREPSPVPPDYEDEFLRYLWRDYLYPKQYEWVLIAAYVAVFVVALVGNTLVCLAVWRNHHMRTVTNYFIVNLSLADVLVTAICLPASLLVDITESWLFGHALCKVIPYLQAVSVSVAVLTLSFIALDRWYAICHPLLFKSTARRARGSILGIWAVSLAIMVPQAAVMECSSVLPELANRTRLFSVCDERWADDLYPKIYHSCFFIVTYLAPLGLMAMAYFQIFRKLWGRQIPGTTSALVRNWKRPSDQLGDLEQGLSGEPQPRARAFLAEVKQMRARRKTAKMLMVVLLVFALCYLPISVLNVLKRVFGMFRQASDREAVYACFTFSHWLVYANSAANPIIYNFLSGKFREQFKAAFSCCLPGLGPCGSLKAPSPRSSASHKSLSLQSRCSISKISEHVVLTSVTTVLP
The experiment can be described thus: FLIPR calcium assay, antagonism of orexin-A in CHO cells expressing the human orexin-1 receptor. The format is cell-based. To be noted: measured with FLIPR Tetra (marked *); 3 nM orexin-A; CHO cells; read-out: OX1 IC50. As for the experimental part:
(§1) Chinese hamster ovary (CHO) cells expressing the human orexin-1 receptor and the human orexin-2 receptor, respectively, are grown in culture medium (Ham F-12 with L-Glutamine) containing 300 μg/ml G418, 100 U/ml penicillin, 100 μg/ml streptomycin and 10% heat inactivated fetal calf serum (FCS). The cells are seeded at 20′000 cells/well into 384-well black clear bottom sterile plates (Greiner). The seeded plates are incubated overnight at 37° C. in 5% CO2. Human orexin-A as an agonist is prepared as 1 mM stock solution in MeOH:water (1:1), diluted in HBSS containing 0.1% bovine serum albumin (BSA), NaHCO3: 0.375 g/l and 20 mM HEPES for use in the assay at a final concentration of 3 nM. Antagonists are prepared as 10 mM stock solution in DMSO, then diluted in 384-well plates, first in DMSO, then in HBSS containing 0.1% bovine serum albumin (BSA), NaHCO3: 0.375 g/l and 20 mM HEPES. On the day of the assay, 50 μl of staining buffer (HBSS containing 1% FCS, 20 mM HEPES, NaHCO3: 0.375 g/l, 5 mM probenecid (Sigma) and 3 μM of the fluorescent calcium indicator fluo-4 AM (1 mM stock solution in DMSO, containing 10% pluronic) is added to each well. The 384-well cell-plates are incubated for 50 min at 37° C. in 5% CO2 followed by equilibration at rt for 30-120 min before measurement. Within the Fluorescent Imaging Plate Reader (FLIPR2 or FLIPR Tetra, Molecular Devices), antagonists are added to the plate in a volume of 10 μl/well, incubated for 10 min and finally 10 μl/well of agonist is added. Fluorescence is measured for each well at 1 second intervals, and the height of each fluorescence peak is compared to the height of the fluorescence peak induced by 3 nM orexin-A with vehicle in place of antagonist. For each antagonist, the IC50 value (the concentration of compound needed to inhibit 50% of the agonistic response) is determined. Optimized conditions may be achieved by adjustment of pipetting speed and cell splitting regime. The calculated IC50 values of the compounds may fluctuate depending on the daily cellular assay performance. Fluctuations of this kind are known to those skilled in the art.

A further experiment has as its target T2, human orexin-2 receptor (Homo sapiens, UniProt O43614).
T2 construct: expressed in transfected cells; host or cells: Chinese hamster ovary (CHO) cells, G418 selection
T2 sequence (O43614 1-444): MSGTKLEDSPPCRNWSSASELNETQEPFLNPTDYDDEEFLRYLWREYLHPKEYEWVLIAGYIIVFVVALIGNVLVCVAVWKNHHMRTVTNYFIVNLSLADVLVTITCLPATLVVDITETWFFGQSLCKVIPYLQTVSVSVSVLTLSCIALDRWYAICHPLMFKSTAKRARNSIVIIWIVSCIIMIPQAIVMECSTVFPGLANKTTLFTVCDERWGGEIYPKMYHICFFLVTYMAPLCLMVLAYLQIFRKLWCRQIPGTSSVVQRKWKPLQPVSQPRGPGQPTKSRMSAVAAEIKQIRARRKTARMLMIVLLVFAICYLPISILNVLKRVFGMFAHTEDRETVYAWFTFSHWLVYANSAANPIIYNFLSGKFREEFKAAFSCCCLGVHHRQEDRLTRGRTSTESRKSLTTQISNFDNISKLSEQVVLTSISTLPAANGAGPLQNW
Briefly: FLIPR calcium assay, antagonism of orexin-A in CHO cells expressing the human orexin-2 receptor. The experiment is classed as cell-based. To be noted: measured with FLIPR Tetra (marked *); 3 nM orexin-A; CHO cells; read-out: OX2 IC50. On the procedure:
as §1

Here are results for one compound from patent US8236801B2, “2-aza-bicyclo[2.2.1]heptane derivatives” (Actelion Pharmaceuticals Ltd., priority 2008, dated 2012).

As usually defined, the IC50 is the concentration that inhibits the measured activity by half.

Regarding `CCN(C)c1nc(C(=O)N2[C@H]3CC[C@H](C3)[C@@H]2CNC(=O)c2cccc3ncsc23)c(-c2ccc(F)cc2)s1` [Example 118, Benzothiazole-7-carboxylic acid {(1S,3R,4R)-2-[2-(ethyl-methyl-amino)-5-(4-fluoro-phenyl)-thiazole-4-carbonyl]-2-aza-bicyclo[2.2.1]hept-3-ylmethyl}-amide], the IC50 came to 117 nM on human orexin-1 receptor and 32 nM on human orexin-2 receptor.
